{"source": "paper PMC8273696", "about": "“Colombian Scorpion Centruroides margaritatus: Purification and Characterization of a Gamma Potassium Toxin with Full-Block Activity on the hERG1 Channel” (Toxins, 2021)", "key": {"[1]": {"tested_on": "ERG potassium channels (hERG1)", "conditions": "ref [22],[46]; cited from earlier work", "source_text": "Scorpion venom is a mixture of proteins, peptides and enzymes, carbohydrates, free amines, nucleotides, lipids, and other low molecular weight components with unknown function. Peptides that act as ion channel modulators are the main agents responsible for the venom toxicity and they have been classified according to their targets into: sodium scorpion toxins (NaScTx), with molecular masses between 6–8 kDa, potassium scorpion toxins (KScTx), with molecular masses between 3–5 kDa, and calcium scorpion toxins (CaScTx) that comprise peptides acting on voltage gated calcium channel ... || The effect of the CmERG1 toxin was evaluated on the hERG1 channel by means of electrophysiology experiments. […] Dose response curves were calculated by application of toxin concentrations from 1 nM to 1 µM. […] This feature is different from the other γKTxs, like CnERG1, ... || Two models were proposed to explain the uncommon feature of the γKTxs that comprises a partial current block, despite the saturation concentration, and the acceleration of the closing process due to the toxin preference for the channel closed state. In one kinetic model proposed by Hill and collaborators, first the toxin binds to the channel in a toxin channel encounter complex permissive to ion flow (TC*) and then passes to the blocked toxin-channel complex (TC). […]"}, "hERG1 channel [2]": {"target": "T1, hERG1 channel (Homo sapiens, UniProt Q12809)", "T1 construct": "expressed in transfected cells", "T1 sequence (Q12809 whole entry)": "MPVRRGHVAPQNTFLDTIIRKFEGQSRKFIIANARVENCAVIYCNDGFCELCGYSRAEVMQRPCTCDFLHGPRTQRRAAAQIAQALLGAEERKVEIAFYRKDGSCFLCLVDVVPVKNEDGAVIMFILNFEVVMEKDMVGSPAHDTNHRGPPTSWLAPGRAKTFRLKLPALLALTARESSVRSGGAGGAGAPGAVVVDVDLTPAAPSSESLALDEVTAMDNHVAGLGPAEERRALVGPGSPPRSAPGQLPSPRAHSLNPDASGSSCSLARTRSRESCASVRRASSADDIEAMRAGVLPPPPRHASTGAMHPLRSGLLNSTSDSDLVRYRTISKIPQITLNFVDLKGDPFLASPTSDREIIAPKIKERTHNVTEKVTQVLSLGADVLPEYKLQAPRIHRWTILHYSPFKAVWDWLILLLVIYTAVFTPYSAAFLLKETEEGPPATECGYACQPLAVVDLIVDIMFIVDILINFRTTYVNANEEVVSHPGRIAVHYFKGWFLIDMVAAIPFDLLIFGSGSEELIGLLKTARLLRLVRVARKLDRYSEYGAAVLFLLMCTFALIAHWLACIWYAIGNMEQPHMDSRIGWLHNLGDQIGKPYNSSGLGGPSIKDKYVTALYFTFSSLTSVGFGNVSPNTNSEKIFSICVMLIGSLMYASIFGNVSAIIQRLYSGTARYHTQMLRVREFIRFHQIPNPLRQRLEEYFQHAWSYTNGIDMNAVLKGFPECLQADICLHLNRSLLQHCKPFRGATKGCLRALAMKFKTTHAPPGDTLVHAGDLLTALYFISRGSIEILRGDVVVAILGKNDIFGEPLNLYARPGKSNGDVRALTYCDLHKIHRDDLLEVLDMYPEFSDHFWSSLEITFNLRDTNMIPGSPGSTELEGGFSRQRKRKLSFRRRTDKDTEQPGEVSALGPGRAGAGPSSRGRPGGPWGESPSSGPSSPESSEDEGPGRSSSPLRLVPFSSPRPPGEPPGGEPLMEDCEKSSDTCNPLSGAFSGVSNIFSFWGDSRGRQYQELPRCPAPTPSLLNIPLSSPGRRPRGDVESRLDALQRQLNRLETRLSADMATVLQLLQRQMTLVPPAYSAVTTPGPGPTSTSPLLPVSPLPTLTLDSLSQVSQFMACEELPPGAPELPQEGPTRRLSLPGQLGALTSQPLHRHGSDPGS", "assay": "Patch-clamp electrophysiology, block of hERG1 tail currents (dose-response) in CHO cells stably expressing hERG1", "format": "cell-based", "conditions": "for activity on hERG1 channels, in words (venom fraction screening / purified peptide): electrophysiology screening", "experimental": "CHO cells stably expressing hERG1 potassium channels were used for the electrophysiological experiments (hERG1 accession number: NP_000229). We previously prepared this cell line stably transfecting CHO cells with plasmid pcDNA3.1-hERG1 (a kind gift from Enzo Wanke from University of Milano-Bicocca, Italy). Briefly: CHO cells at 80% confluence in a 35 mm culture plate were transfected with 2 µg of pcDNA3.1-hERG1 mixed with 7 uL of Lipofectamine (Invitrogen), accordingly to the manufacturer instructions. After 3 days, cells were selected by adding to the culture medium 2 mg/mL of G418 (SIGMA). After 10 days of selection, cells were cloned by limiting dilution and the resulting clones were probed for their current expression by electrophysiological recordings. High glucose DMEM (Dulbecco’s Modified Eagle Medium, SIGMA, Naucalpan de Juarez, Edo de Mexico, Mexico), supplemented with 10% Fetal Bovine Serum (Biotecfron, Emiliano Zapata, Morelos, Mexico) and with 500 µg/mL of antibiotic G418 (SIGMA) was used as growth medium. Cells were routinely maintained at 37 °C with 5% of CO2 in humidified atmosphere.\nIntracellular solution contained in mM: 130 K-Aspartate, 10 NaCl, 2 MgCl2, 10 HEPES, 10 EGTA, pH 7.3 adjusted with NaOH. Extracellular solution contained in mM: 95 NaCl, 40 KCl, 2 CaCl2, 2 MgCl2, 10 HEPES, 5 glucose, pH 7.3 adjusted with NaOH. A concentrated 100–1000× stock was prepared dissolving lyophilized toxin in distilled water and stored at −20 °C until the used (no more than 3 weeks). Solutions were delivered to the cell under patch by means of an active perfusion system connected to a variable speed syringe pump (model A-99 from Razel Scientific Instruments (Saint Albans VT, USA)). The perfusion rate was approximately 1µL/s.\nPatch pipettes were manufactured from capillary borosilicate glass tubing (Warner Instruments, Hamden, CT, USA) by means of a vertical puller model P-30 (Sutter Instrument, Novato, CA, USA). When pipettes were filled with internal solution, pipette resistance was between 1.5–3 MOhm.\nDuring the depolarizing steps, hERG1 currents are usually small (Figure S1). This is a consequence of the slow activation kinetics (in seconds) and the very fast inactivation kinetics (in milliseconds) of this channel that can be considered an inward rectifier. Therefore, it is a common practice to record the tail currents during the hyperpolarization, where the inactivation is quickly removed and the deactivation occurs slowly. For the dose response curve (Figure 3), tail currents of hERG1 were recorded at −120 mV for 500 ms, after a preconditioning pulse at 60 mV for 500 ms every 5 s. Peak currents recorded in absence and in presence of the toxin were normalized to the maximal peak current in control condition and plotted versus the logarithm of toxin concentration. Data were fitted by a logistic equation. For the voltage dependence of activation study, hERG1 tail currents were recorded during a step at −120 mV for 500 ms, preceded by a 5 s depolarization steps in the range between 30 to −80 mV. To determine the voltage dependence of inactivation, currents were recorded after a depolarization at 40 mV for 1 s, during depolarization steps in the range between 40 to −170 mV. Currents recorded at potentials lower than −90 mV were corrected for deactivation: the deactivation process was fitted by a single exponential extrapolated to the zero point of each step. Data from both activation and inactivation protocols, in absence and in presence of the toxin, were normalized, plotted versus membrane potential, and fitted by a Boltzmann function.\nCurrents were acquired by using MultiClamp 700A amplifier and DigiData 1440a (Molecular Devices, San Jose, CA, USA). Off-line analysis and graphs were performed by using Clampfit 10 (Molecular Devices) and Origin 8 (OriginLab, Northampton MA, USA).\nWhere it is not otherwise indicated, electrophysiological data represent the mean of 3–6 cells ± standard error (S.E.). […]"}, "hERG1 channel [3]": {"target": "T1, hERG1 channel", "assay": "Patch-clamp, voltage dependence of activation of hERG1", "format": "cell-based", "conditions": "4 nM", "experimental": "To understand better the activity of CmERG1 on hERG1, we analyzed the voltage dependence of the activation and inactivation processes in presence or absence of CmERG1 at 4 nM, a concentration close to the IC50. For the activation, tail currents were elicited at −120 mV after 5 s preconditioning pulses from 30 to −80 mV (Figure 4A). Figure 4B,C illustrates typical currents recorded in the absence and in the presence of CmERG1. Tail currents were normalized, plotted versus preconditioning potentials, and fitted to a Boltzmann equation (Figure 4D). […]\nFigure 4 Effect of CmERG1 at 4 nM on the voltage dependence of activation and inactivation. […] (B,C) typical example of tail currents recorded in control conditions and during application of CmERG1, respectively. […] Black lines are the best fit obtained to a Boltzmann equation giving V1/2 for activation of −37.5 ± 1.4 mV and −34.8 ± 0.8 mV and slope of 6.0 ± 0.3 and 8 ± 0.7 for the control and in the presence of 4 nM CmERG1, respectively (mean ± SE and n = 5, analyzed by paired sample t-test at 0.05 level). […] Currents recorded at potentials lower than −90 mV were corrected for deactivation as shown in the inset of panel (F). […] (F,G) typical example of currents recorded in control conditions and in presence of 4 nM CmERG1 respectively. […]"}, "hERG1 channel [4]": {"target": "T1, hERG1 channel", "assay": "Patch-clamp, voltage dependence of (steady state) inactivation of hERG1", "format": "cell-based", "conditions": "4 nM, n = 5", "experimental": "Figure 4 Effect of CmERG1 at 4 nM on the voltage dependence of activation and inactivation. (A) Stimulation protocol used to study the voltage dependence of activation. Tail currents were elicited by 5 s preconditioning steps ranging from +30 to −80 mV, followed by a 500 ms pulse at −120 mV. (B,C) typical example of tail currents recorded in control conditions and during application of CmERG1, respectively. (D) Voltage dependence of activation. Normalized peak currents are plotted against the voltage of the preconditioning pulses in control conditions (black squares) and in the presence of 4 nM CmERG1 (grey squares). Black lines are the best fit obtained to a Boltzmann equation giving V1/2 for activation of −37.5 ± 1.4 mV and −34.8 ± 0.8 mV and slope of 6.0 ± 0.3 and 8 ± 0.7 for the control and in the presence of 4 nM CmERG1, respectively (mean ± SE and n = 5, analyzed by paired sample t-test at 0.05 level). (E) Stimulation used to study the voltage dependence of inactivation. Currents were elicited by a 1 s preconditioning pulse at 40 mV followed by depolarization steps ranging from −170 mV to 40 mV. Currents recorded at potentials lower than −90 mV were corrected for deactivation as shown in the inset of panel (F). The deactivation process was fitted by a single exponential (grey dash line) extrapolated to the zero point of the depolarization step, indicated by the arrow. (F,G) typical example of currents recorded in control conditions and in presence of 4 nM CmERG1 respectively. (H) Voltage dependence of inactivation. […] Black lines are the best fit obtained by a Boltzmann equation giving V1/2 for inactivation of −77.6 ± 3.6 mV and −79 ± 1.3 mV and slope of 28.2 ± 2.2 and 29 ± 1.5 for control conditions and in presence of 4 nM CmERG1, respectively (mean ± SE and n = 5, analyzed by paired sample t-test at 0.05 level).\nFor steady state inactivation, tail currents were recorded during 500 ms depolarization steps from −170 to 40 mV, after a depolarization at 40 mV for 1 s (Figure 4E). Figure 4F,G show an example of currents recorded in the absence and in the presence of toxin. […]"}, "Kv1.1 channel": {"tested_on": "Kv1.1 channel", "conditions": "affinity compared with Kv1.3; ref [31] (ref [30],[31]); cited from earlier work", "source_text": "(§1) Until now, little is known about the C. margaritatus venom composition. […] Thereafter, in a proteomics study of C. margaritatus venom, two other peptides were isolated and characterized: a peptide with 24 amino acids and 3 disulfide bridges (MW = 2609.15 Da) and a peptide with 30 amino acids and 3 disulfide bridges (MW = 3376 Da), both cla ... || Despite the fact that the C. margaritatus scorpion belongs to the Buthidae […], its venom has been considered of low toxicity, but as mentioned above, in Colombia this species has caused a few cases of moderate and severe scorpionism."}, "Kv1.2 channel": {"tested_on": "Kv1.2 channel", "conditions": "affinity compared with Kv1.3; ref [31] (ref [30],[31]); cited from earlier work", "source_text": "as §1"}, "Kv1.3 channel": {"tested_on": "Kv1.3 channel", "conditions": "human peripheral T lymphocytes, ref [30] (ref [30],[31]), cited from earlier work", "source_text": "as §1"}}, "note": "“Also recorded” adds a separate entry of the source. Where two headings read alike, the source gives them in different places. Positions of bridges follow the written chain, without caps; N, C: chain ends. No end group written: not given here.", "data": [{"substance": "BeKm-1", "values": [{"measurement": "state dependence of channel-toxin interaction", "setting": "[1]", "result": "toxin binds preferentially to the closed channels while inactivation promotes toxin unbinding"}]}, {"substance": "DRDSCVDKSRCAKYGYFQECTDCCKKYGHNGGTCMFFKCKCA (disulfide 5-23, 11-34, 20-39, 24-41) [CmERG1]", "values": [{"measurement": "slope of dose-response curve (logistic equation)", "setting": "hERG1 channel [2]; CHO cells stably expressing hERG1, 1 nM to 1 µM, tail currents at −120 mV", "result": "1.1 ± 0.05"}, {"measurement": "IC50", "setting": "hERG1 channel [2]; CHO cells stably expressing hERG1, tail currents at −120 mV after preconditioning at 60 mV for 500 ms every 5 s, 1 nM to 1 µM, logistic fit, mean ± S.E., n = 3-6 cells per concentration, read-out: IC50, inhibition of hERG1 currents", "result": "3.4 ± 0.2", "unit": "nM"}, {"measurement": "onset and reversibility of block", "setting": "hERG1 channel [2]; CHO-hERG1 patch clamp, application at 1 µM and washout, pulses every 5 s", "result": "blocks channels in a fast and reversible manner"}, {"measurement": "block of hERG1 current, in words", "setting": "hERG1 channel [2]; CHO-hERG1 patch clamp, highest concentration 1 µM (n = 3)", "result": "completely blocks hERG1 current; also recorded: able to almost completely block the channels; also recorded: full blocking"}, {"measurement": "block of hERG1 current", "setting": "hERG1 channel [2]; CHO-hERG1 patch clamp, maximal block", "result": 100, "unit": "%"}, {"measurement": "effect on kinetics of the closing (deactivation) process", "setting": "hERG1 channel [2]; CHO-hERG1 patch clamp, representative currents at 300 nM and 3 nM", "result": "does not accelerate the kinetics of the closing process; also recorded: absence of deactivation process acceleration"}, {"measurement": "difference in efficiency at a total block of current between CmERG1 and CnERG1", "setting": "hERG1 channel [2]; CmERG1 versus CnERG1", "result": 10, "unit": "%"}, {"measurement": "activity on hERG1 channels, in words (venom fraction screening / purified peptide)", "setting": "hERG1 channel [2]", "result": "active on hERG1"}, {"measurement": "activity on hERG1 channels, in words (venom fraction screening / purified peptide)", "setting": "hERG1 channel [2]; listed as peptide corresponding to 4792.88 Da", "result": "confirmed the activity of this peptide against hERG1"}, {"measurement": "V1/2 for activation (potential of half activation) in presence of toxin", "setting": "hERG1 channel [3]; Boltzmann fit, control −37.5 ± 1.4 mV, mean ± SE, n = 4 or n = 5, paired t-test", "result": "-34.8 ± 0.8", "unit": "mV"}, {"measurement": "effect on total current / voltage dependence of activation, in words", "setting": "hERG1 channel [3]; n = 4, paired sample t-test at 0.05 level", "result": "reduces the total current with a tendency to modify the potential of half activation"}, {"measurement": "slope of voltage dependence of inactivation in presence of toxin", "setting": "hERG1 channel [4]; Boltzmann fit, control 28.2 ± 2.2, mean ± SE", "result": "29 ± 1.5"}, {"measurement": "V1/2 for inactivation in presence of toxin", "setting": "hERG1 channel [4]; Boltzmann fit, control −77.6 ± 3.6 mV, mean ± SE", "result": "−79 ± 1.3", "unit": "mV"}, {"measurement": "effect on voltage dependence of steady state inactivation, in words", "setting": "hERG1 channel [4]; paired sample t-test at 0.05 level", "result": "does not induce significant changes on the voltage dependence of inactivation; also recorded: no modification of the steady state inactivation"}]}, {"substance": "Margatoxin", "values": [{"measurement": "inhibition of Kv1.1, in words", "setting": "Kv1.1 channel", "result": "block also Kv1.1"}, {"measurement": "inhibition of Kv1.2, in words", "setting": "Kv1.2 channel", "result": "block also Kv1.1 and Kv 1.2"}, {"measurement": "inhibition of Kv1.3, in words", "setting": "Kv1.3 channel", "result": "potent and specific blocker"}, {"measurement": "inhibition of Kv1.3, in words", "setting": "Kv1.3 channel; listed as Margatoxin 1", "result": "potent inhibitor"}]}]}
